The values that follow come from publication PMC10477861, “Efficient Mining of Anticancer Peptides from Gut Metagenome” (Advanced Science, 2023).

What all share (settings): 25 µM pACP, 24 h, maintenance medium 1% FBS, ratio of viability to vehicle (PBS), at least three technical repetitions
Test [1] deals with CT26. As to the kind of experiment: MTT primary screening of anticancer activity, CT26. The format is cell-based, Murine. An excerpt:
(§1) We successfully chemically synthesized 40 pACPs for the purpose of in vitro or in vivo characterization of their potential anticancer efficacy. In the initial step, we conducted an in vitro primary screen of these 40 pACPs using a panel of 16 different cancer cell lines, including four human CRC lines (HT29, Caco2, HCT116, and […]), as well as 12 other cancer models (Table S4, Supporting Information). We deliberately selected a diverse panel of cell lines to assess the effect of pACPs across various genetic backgrounds. Briefly, the cancer cells were cultured in specific media (details provided in the Experimental Section) and then treated with pACPs at a final concentration of 25 µM. Peptides with minimum effective inhibition concentrations >25 µM were considered non‐ACPs. After exposure to pACPs, the survival rate of the cancer cells was measured using the MTT assay. Remarkably, 39 out of the 40 pACPs (97.5%) induced at least 20% inhibition in at least one cell line (Figure 3a and Table S5, Supporting Information). […] Thus, our method successfully identified pACPs with a very high rate of anticancer effects across various cancer cell lines.
(§2) To evaluate the activity of the 40 potentially effective pACPs, a panel of 16 cancer cell lines was treated, including human CRC cell lines (HT29, Caco‐2, HCT116). Details of the cell lines used, respective media, and culture conditions were presented in Table S1 (Supporting Information). Once the cells reached 60% confluence, it was incubated with each candidate peptide at a concentration of 25 µM pACPs for 24 h. Concurrently, the complete medium was replaced with a maintenance medium containing only 1% FBS. Subsequently, the viability of each cell line using the MTT Cell Proliferation and Cytotoxicity Assay Kit according to the manufacturer's instructions was assessed. […] For the CRC cell line CT26, it was calculated the CC50 value using two peptides (pACP1780 and pACP2283) with relevant data presented in Table S6 (Supporting Information). The calculation was performed using an online tool: https://www.aatbio.com/tools/ic50‐calculator.

For test [2], the system named is SK-BR-3. In words: MTT primary screening of anticancer activity, SK-BR-3. The format is cell-based.
Text: as §1, §2

For test [3], the system named is HT29. As to the kind of experiment: MTT primary screening of anticancer activity, HT29. The format is cell-based, Human.
Text: as §1, §2

Test [4] deals with MDA-MB-231. As to the kind of experiment: MTT primary screening of anticancer activity, MDA-MB-231. The format is cell-based.
Text: as §1, §2

In test [5] the test system is LCC. As to the kind of experiment: MTT primary screening of anticancer activity, LCC. It counts as cell-based.
Text: as §1, §2

In test [6] the test system is MDA-MB-436. In words: MTT primary screening of anticancer activity, MDA-MB-436. It counts as cell-based.
Text: as §1, §2

The subject of test [7] is B16. As to the kind of experiment: MTT primary screening of anticancer activity, B16. It counts as cell-based, Mouse.
Text: as §1, §2

The test system of test [8] is BT474. As to the kind of experiment: MTT primary screening of anticancer activity, BT474. The format is cell-based.
Text: as §1, §2

Test [9] has as its system EFM192A. In words: MTT primary screening of anticancer activity, EFM192A. The format is cell-based.
Text: as §1, §2

Test [10] relates to Caco2. As to the kind of experiment: MTT primary screening of anticancer activity, Caco2. It counts as cell-based, Human.
Text: as §1, §2

Test [11] concerns MDA-MB-453. In words: MTT primary screening of anticancer activity, MDA-MB-453. The format is cell-based.
Text: as §1, §2

The test system of test [12] is T47D. As to the kind of experiment: MTT primary screening of anticancer activity, T47D. The format is cell-based.
Text: as §1, §2

In test [13] the test system is MCF7. As to the kind of experiment: MTT primary screening of anticancer activity, MCF7. It counts as cell-based.
Text: as §1, §2

Test [14] has as its system MDA-MB-468. In words: MTT primary screening of anticancer activity, MDA-MB-468. It counts as cell-based.
Text: as §1, §2

In test [15] the test system is Hela. As to the kind of experiment: MTT primary screening of anticancer activity, Hela. It counts as cell-based, Human.
Text: as §1, §2

In test [16] the test system is HCT116. In words: MTT primary screening of anticancer activity, HCT116. The format is cell-based, Human.
Text: as §1, §2

“AAGVSIEIHISLTLFTQVKCVARSQCAAEGAGLRHIKVAALQSCSRRRAH [pACP2]”: the “Survival rate of cancer cells in primary screening” value (shortened to “Survival rate of cancer cells”) in test [1], in [2], in test [3], in test [4], in test [5] and in test [6] was 1.00 throughout. Besides, the “Survival rate of cancer cells” value in test [7] came out at 1.00; in [8], 1.00; in test [9], 1.00; in test [10] it was 1.00; in [11] it was 1.00; in test [12], 0.71. Moreover, the “Survival rate of cancer cells” value in test [13], in test [14], in test [15] and in test [16] was 1.00 each time.

Consider “CRLCTHGNVSACVLGKNAVFSVSAHNSDCPQPTCDFSSPLEECLESS [pACP177]”, for which the “Survival rate of cancer cells” value in [1], in [2], in test [3], in test [4], in test [5] and in [6] was 1.00 in each case. Further, the “Survival rate of cancer cells” value in [7] stood at 0.73; in test [8], 1.00; in [9], 1.00; in test [10] it was 1.00; in [11], 1.00; in test [12], 0.59. In addition, the “Survival rate of cancer cells” value in test [13], in test [14], in test [15] and in test [16] was 1.00 each time.

As to “DRGERVAHGLDLLDGVVAEGVAAKGDDNTIGLAKRLRHCWNPFCKRPTTH [pACP253]”, the “Survival rate of cancer cells” value in [1], in test [2], in test [3], in test [4], in [5] and in [6] was 1.00 throughout. Also, the “Survival rate of cancer cells” value in test [7] is listed as 1.00; in test [8] it was 1.00; in [9], 1.00; in test [10] it was 1.00; in test [11] it was 1.00; in test [12] it was 0.70. For the same sequence, the “Survival rate of cancer cells” value in [13] is on record as 1.00; in [14], 0.76; in [15] it was 1.00; in [16] it was 1.00.
